Experimental data: patent US20260184663A1, “INDENE COMPOUNDS, PHARMACEUTICAL COMPOSITIONS THEREOF, AND THEIR THERAPEUTIC APPLICATIONS” (NucMito Pharmaceuticals co. Ltd., priority 2022, published 2026)
Where two headings read alike, the source gives them in different places.

Experiments:
Assay type in all cases: cell-based
[1] = test system: A431 (epidermoid carcinoma); assay: Antiproliferative activity (CCK-8 cell viability), A431; conditions: Homo sapiens, 72 h, read-out: Antiproliferative activity in cancerous cells, A431 (inhibition of cell growth); for inhibition at 3.3 µM: A-431, Compound concentration: 3.3 μM; for inhibition at 10 µM: A-431, Compound concentration: 10 μM; for inhibition at 30 µM: A-431, Compound concentration: 30 μM
In short: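 A431 epidermoid carcinoma cells grown in DMEM with 10% FBS were plated at 2,000-5,000 cells/well in 96-well plates. After attachment they were exposed to compound at 3.3 μM, 10 μM, or 30 μM for 72 h at 37° C. Viability was then assessed by CCK-8 against DMSO vehicle-treated wells.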

HeLa (cervical cancer) = assay: Antiproliferative activity (CCK-8 cell viability), HeLa; conditions: Homo sapiens, 72 h, read-out: Antiproliferative activity in cancerous cells, HELA (inhibition of cell growth); for inhibition at 3.3 µM: Compound concentration: 3.3 μM; for inhibition at 10 µM: Compound concentration: 10 μM; for inhibition at 30 µM: Compound concentration: 30 μM
In short: (§1)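 Cells grown in DMEM (HepG2, SW480), MEM (HeLa) or F-12K (A549), each with 10% FBS, then exposed to compound at 3.3, 10 or 30 μM for 72 h at 37 °C. CCK-8 absorbance at 450 nm; viability expressed as percent of DMSO-treated cells, graded as growth inhibition bands.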

[2] = test system: A549 (lung adenocarcinoma); assay: Antiproliferative activity (CCK-8 cell viability), A549; conditions: Homo sapiens, 72 h, read-out: Antiproliferative activity in cancerous cells, A549 (inhibition of cell growth); for inhibition at 3.3 µM: Compound concentration: 3.3 μM; for inhibition at 10 µM: Compound concentration: 10 μM; for inhibition at 30 µM: Compound concentration: 30 μM
In short: as §1

HepG2 (liver cancer) = assay: Antiproliferative activity (CCK-8 cell viability), HepG2; conditions: Homo sapiens, 72 h, read-out: Antiproliferative activity in cancerous cells, HepG2 (inhibition of cell growth); for inhibition at 3.3 µM: Compound concentration: 3.3 μM; for inhibition at 10 µM: Compound concentration: 10 μM; for inhibition at 30 µM: Compound concentration: 30 μM
In short: as §1

[3] = test system: B16F10 (malignant melanoma); assay: Antiproliferative activity (CCK-8 cell viability), B16F10; conditions: Mus musculus, 72 h, read-out: Antiproliferative activity in cancerous cells, B16F10 (inhibition of cell growth); for inhibition at 3.3 µM: B16-F10, Compound concentration: 3.3 μM; for inhibition at 10 µM: B16-F10, Compound concentration: 10 μM; for inhibition at 30 µM: B16-F10, Compound concentration: 30 μM
In short: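 B16F10 melanoma cells grown in DMEM with 10% FBS were plated in 96-well plates at 2,000-5,000 cells/well. After attachment they were exposed to compound in medium for 72 h at 37° C. CCK-8 solution (10 μL) was then added, and after 4 h at 37° C absorbance was read at 450 nm.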

SW480 (colon cancer) = assay: Antiproliferative activity (CCK-8 cell viability), SW480; conditions: Homo sapiens, 72 h; for inhibition at 3.3 µM: Compound concentration: 3.3 μM; for inhibition at 10 µM: Compound concentration: 10 μM; for inhibition at 30 µM: Compound concentration: 30 μM
In short: as §1

[4] = test system: MDA-MB-231 (breast cancer); assay: Antiproliferative activity (CCK-8 cell viability), MDA-MB-231; conditions: Homo sapiens, 72 h, read-out: Antiproliferative activity in cancerous cells, MDA-MB-231 (inhibition of cell growth); for inhibition at 3.3 µM: Compound concentration: 3.3 μM; for inhibition at 10 µM: Compound concentration: 10 μM; for inhibition at 30 µM: Compound concentration: 30 μM
In short: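 MDA-MB-231 breast cancer cells, grown in DMEM with 10% FBS, were plated in 96-well plates at 2,000-5,000 cells/well. Once attached, they were exposed to compound and incubated at 37° C. for 72 h. Viability was then measured with CCK-8 (10 μL per well, 4 h at 37° C.) by absorbance at 450 nm, relative to DMSO vehicle wells.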

[5] = read-out: Antiproliferative activity in cancerous cells, SW480 (inhibition of cell growth)
[6] = read-out: Antiproliferative activity in cancerous cells, SW480

Row | SMILES | inhibition at 3.3 µM [1] [%] | inhibition at 10 µM [1] [%] | inhibition at 3.3 µM (HeLa (cervical cancer)) [%] | inhibition at 10 µM (HeLa (cervical cancer)) [%] | inhibition at 3.3 µM [2] [%] | inhibition at 10 µM [2] [%] | inhibition at 3.3 µM (HepG2 (liver cancer)) [%] | inhibition at 10 µM (HepG2 (liver cancer)) [%] | inhibition at 3.3 µM [3] [%] | inhibition at 10 µM [3] [%] | inhibition at 3.3 µM (SW480 (colon cancer); [5]) [%] | inhibition at 10 µM (SW480 (colon cancer); [5]) [%] | inhibition at 3.3 µM [4] [%] | inhibition at 10 µM [4] [%] | also measured
1 | CC1=C(CC(O)CO)c2ccccc2/C1=C\c1ccc(Oc2ccc(F)cc2)cc1 (stereo not shown) [A203, (Z)-3-(1-(4-(4-Fluorophenoxy)benzylidene)-2-methyl-1H-inden-3-yl)propane-1,2-diol] | 30 to 50 | ≥ 50 | < 30 | ≥ 50 | < 30 | ≥ 50 | < 30 | < 30 | < 30 | ≥ 50 | < 30 | 30 to 50 | < 30 | ≥ 50 | –
2 | CC1=C(CC(=O)O)c2cc(Cl)ccc2/C1=C\c1ccc(Oc2ccc(Cl)cc2)cc1 [C62, (Z)-2-(5-Chloro-1-(4-(4-chlorophenoxy)benzylidene)-2-methyl-1H-inden-3-yl)acetic acid] | 30 to 50 | ≥ 50 | 30 to 50 | ≥ 50 | 30 to 50 | ≥ 50 | ≥ 50 | ≥ 50 | < 30 | ≥ 50 | < 30 | 30 to 50 | < 30 | < 30 | –
3 | CC1=C(CC(=O)O)c2cc(F)ccc2/C1=C\c1ccc(Cc2cc3ccccc3o2)cc1 [C311, (Z)-2-(1-(4-(Benzofuran-2-ylmethyl)benzylidene)-5-fluoro-2-methyl-1H-inden-3-yl)acetic acid] | 30 to 50 | 30 to 50 | < 30 | < 30 | < 30 | < 30 | ≥ 50 | ≥ 50 | ≥ 50 | ≥ 50 | < 30 | < 30 | < 30 | ≥ 50 | inhibition at 30 µM [1]: 30 to 50%; inhibition at 30 µM (HeLa (cervical cancer)): 30 to 50%; inhibition at 30 µM [2]: < 30%; inhibition at 30 µM (HepG2 (liver cancer)): ≥ 50%; inhibition at 30 µM [3]: ≥ 50%; inhibition at 30 µM (SW480 (colon cancer); [5]): < 30%; inhibition at 30 µM [4]: ≥ 50%
4 | COc1ccc(Oc2cccc(/C=C3/C(C)=C(CC(=O)O)c4cc(F)ccc43)c2)cc1Cl [C102, (Z)-2-(1-(3-(3-Chloro-4-methoxyphenoxy)benzylidene)-5-fluoro-2-methyl-1H-inden-3-yl)acetic acid] | ≥ 50 | ≥ 50 | < 30 | ≥ 50 | ≥ 50 | ≥ 50 | ≥ 50 | ≥ 50 | ≥ 50 | ≥ 50 | < 30 | ≥ 50 | ≥ 50 | ≥ 50 | –
5 | COc1ccc(Oc2ccc(/C=C3/C(C)=C(CC(=O)O)c4cc(Cl)ccc43)cc2)cc1 [C82, (Z)-2-(5-Chloro-1-(4-(4-methoxyphenoxy)benzylidene)-2-methyl-1H-inden-3-yl)acetic acid] | ≥ 50 | ≥ 50 | < 30 | ≥ 50 | 30 to 50 | ≥ 50 | < 30 | ≥ 50 | ≥ 50 | ≥ 50 | < 30 | < 30 | ≥ 50 | ≥ 50 | inhibition at 30 µM (SW480 (colon cancer); [6]): 30 to 50%
6 | CC1=C(CC(=O)O)c2cc(F)ccc2/C1=C\c1ccc(Oc2cccc(Cl)c2)cc1 [C61, (Z)-2-(1-(4-(3-Chlorophenoxy)benzylidene)-5-fluoro-2-methyl-H-inden-3-yl)acetic acid] | ≥ 50 | ≥ 50 | 30 to 50 | ≥ 50 | 30 to 50 | ≥ 50 | 30 to 50 | 30 to 50 | < 30 | < 30 | < 30 | < 30 | < 30 | < 30 | inhibition at 30 µM (SW480 (colon cancer); [6]): < 30%
7 | CC1=C(CC(=O)O)c2cc(F)ccc2/C1=C\c1ccc(COCc2ccccc2)cc1 [B104, (Z)-2-(1-(4-((Benzyloxy)methyl)benzylidene)-5-fluoro-2-methyl-1H-inden-3-yl)-acetic acid] | ≥ 50 | ≥ 50 | ≥ 50 | ≥ 50 | 30 to 50 | 30 to 50 | < 30 | ≥ 50 | ≥ 50 | ≥ 50 | ≥ 50 | ≥ 50 | 30 to 50 | ≥ 50 | –
8 | COc1ccc2c(c1)C(CC(=O)O)=C(C)/C2=C/c1ccc(Oc2ccc(Cl)cc2)cc1C [C74, (Z)-2-(1-(4-(4-Chlorophenoxy)-2-methylbenzylidene)-5-methoxy-2-methyl-1H-inden-3-yl)acetic acid] | ≥ 50 | ≥ 50 | < 30 | ≥ 50 | 30 to 50 | ≥ 50 | < 30 | ≥ 50 | ≥ 50 | ≥ 50 | < 30 | 30 to 50 | ≥ 50 | ≥ 50 | –
9 | CC1=C(CC(=O)O)c2c(F)cc(F)cc2/C1=C\c1ccc(C(F)(F)F)cc1 [D5, (Z)-2-(4,6-Difluoro-2-methyl-1-(4-(trifluoromethyl)benzylidene)-1H-inden-3-yl)-acetic acid] | ≥ 50 | ≥ 50 | < 30 | ≥ 50 | 30 to 50 | ≥ 50 | < 30 | < 30 | < 30 | ≥ 50 | < 30 | < 30 | < 30 | 30 to 50 | inhibition at 30 µM [1]: ≥ 50%; inhibition at 30 µM (HeLa (cervical cancer)): ≥ 50%; inhibition at 30 µM [2]: ≥ 50%; inhibition at 30 µM (HepG2 (liver cancer)): 30 to 50%; inhibition at 30 µM [3]: ≥ 50%; inhibition at 30 µM (SW480 (colon cancer); [5]): < 30%; inhibition at 30 µM [4]: ≥ 50%
